Reference: patent publication US20130109682A1, “CYCLIC ETHER COMPOUNDS USEFUL AS KINASE INHIBITORS” (NOVARTIS AG, priority 2010, published 2013)
pEC50, pIC50: −log10 of the molar value.

What was measured:
GSK3β = GSK3β (Homo sapiens, UniProt P49841); assay: GSK3β ATP depletion assay; format: biochemical; conditions: ATP depletion assay; read-out: GSK3b IC50
Procedure, shortened: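 Human GSK3β (5 nM) preincubated 15 min with 10 μM biotinylated phospho-CREB peptide in pH 7.5 Tris buffer (15 mM MgCl2, 1 mM DTT, 0.1% BSA, 2.5% DMSO). Reaction started with 2 μM ATP and run to about 50% ATP depletion. Remaining ATP measured by KinaseGlo luminescence.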

PIM1 = PIM1 (Homo sapiens, UniProt P11309); assay: Pim 1 AlphaScreen assay (high ATP); format: biochemical; conditions: read-out: Pim1 IC50
PIM1, sequence (P11309 whole entry): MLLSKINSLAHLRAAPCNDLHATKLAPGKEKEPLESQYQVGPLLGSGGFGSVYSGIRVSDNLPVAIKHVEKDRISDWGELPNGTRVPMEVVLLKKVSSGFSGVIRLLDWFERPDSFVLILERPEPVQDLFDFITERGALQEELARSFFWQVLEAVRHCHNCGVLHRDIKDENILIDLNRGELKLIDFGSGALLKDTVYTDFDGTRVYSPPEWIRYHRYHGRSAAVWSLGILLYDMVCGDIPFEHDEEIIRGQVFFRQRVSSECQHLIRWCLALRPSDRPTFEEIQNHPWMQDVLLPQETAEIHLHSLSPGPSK
Procedure: (§1) Pim1, Pim2, Pim3 AlphaScreen Assay Pim 1, Pim 2 & Pim 3 AlphaScreen assays using high ATP (11-125×ATP Km) were used to determine the biochemical activity of the inhibitors. The activity of Pim 1, Pim 2, & Pim 3 is measured using a homogeneous bead based system quantifying the amount of phosphorylated peptide substrate resulting from kinase-catalyzed phosphoryl transfer to a peptide substrate. Compounds to be tested are dissolved in 100% DMSO and directly distributed to a white 384-well plate at […] per well. To start the reaction, 5 μl of 100 nM Bad peptide (Biotin-AGAGRSRHSSYPAGT —OH) and ATP (concentrations described below) in assay buffer (50 mM Hepes, pH=7.5, 5 mM MgCl2, 0.05% BSA, 0.01% Tween-20, 1 mM DTT) is added to each well. This is followed by the addition of 5 μl/well of Pim 1, Pim 2 or Pim 3 kinase in assay buffer (concentrations described below). Final assay concentrations (described below) are in 2.5% DMSO. The reactions are performed for ˜2 hours, then stopped by the addition of 10 μl of 0.75 μg/ml anti-phospho Ser/Thr antibody (Cell Signaling), 10 μg/ml Protein A AlphaScreen beads (Perkin Elmer), and 10 μg/ml streptavidin coated AlphaScreen beads in stop/detection buffer (50 mM EDTA, 95 mM Tris, pH=7.5, 0.01% Tween-20). The stopped reactions are incubated overnight in the dark. The phosphorylated peptide is detected via an […] initiated chemiluminescence/fluorescence cascade using the Envision plate reader (Perkin Elmer).
(§2) IC50, the half maximal inhibitory concentration, represents the concentration of a test compound that is required for 50% inhibition of its target in vitro under the described assay conditions.

PIM2 = PIM2 (Homo sapiens, UniProt Q9P1W9); assay: Pim 2 AlphaScreen assay (high ATP); format: biochemical; conditions: read-out: Pim2 IC50
PIM2, sequence (Q9P1W9 whole entry): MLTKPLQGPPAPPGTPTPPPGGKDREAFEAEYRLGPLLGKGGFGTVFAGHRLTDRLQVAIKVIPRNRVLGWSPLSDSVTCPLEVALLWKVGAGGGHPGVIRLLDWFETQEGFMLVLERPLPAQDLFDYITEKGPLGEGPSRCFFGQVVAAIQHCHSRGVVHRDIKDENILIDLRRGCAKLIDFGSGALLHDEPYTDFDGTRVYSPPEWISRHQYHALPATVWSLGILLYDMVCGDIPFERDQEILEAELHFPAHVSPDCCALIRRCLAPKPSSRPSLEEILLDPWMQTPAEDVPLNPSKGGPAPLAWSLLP
Procedure: as §1, §2

PIM3 = PIM3 (Homo sapiens, UniProt Q86V86); assay: Pim 3 AlphaScreen assay (high ATP); format: biochemical; conditions: read-out: Pim3 IC50
Procedure: as §1, §2

[1] = tested on: KMS11 (human myeloma cell line); assay: Cell proliferation assay (CellTiter-Glo), KMS11; format: cell-based; conditions: Homo sapiens, KMS-11; KMS11 cells, cell proliferation; read-out: KMS11-Luc EC50
Procedure, shortened: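 KMS11 cells in IMDM with 10% FBS and sodium pyruvate, seeded at 2000 cells/well on assay day. Compound added at 2× to equal volume of cells, incubated 3 days at 37° C. Viability read by CellTiter-Glo luminescence; EC50 derived.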

GSK3β, sequence (P49841 whole entry, species assumed): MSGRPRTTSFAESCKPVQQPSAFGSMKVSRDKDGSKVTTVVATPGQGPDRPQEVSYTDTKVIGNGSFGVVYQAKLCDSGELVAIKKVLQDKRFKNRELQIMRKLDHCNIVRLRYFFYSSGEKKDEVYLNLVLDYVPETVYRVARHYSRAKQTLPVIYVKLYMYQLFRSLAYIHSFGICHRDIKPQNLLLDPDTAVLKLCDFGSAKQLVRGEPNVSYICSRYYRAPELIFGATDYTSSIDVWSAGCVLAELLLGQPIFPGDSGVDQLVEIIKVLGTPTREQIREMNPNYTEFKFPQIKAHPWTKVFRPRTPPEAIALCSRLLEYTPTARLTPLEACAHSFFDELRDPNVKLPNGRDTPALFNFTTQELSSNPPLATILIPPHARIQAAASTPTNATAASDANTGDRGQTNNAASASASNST

Row | pIC50 (GSK3β) | pIC50 (PIM1) | pIC50 (PIM2) | pIC50 (PIM3) | pEC50 [1] | Structure (SMILES)
1 | 4.79 | 7.64 | 6.18 | 6.29 |  | CC(C)C1OC(c2ccncc2NC(=O)c2nc(-c3c(F)cccc3F)ncc2N)C[C@H](N)[C@H]1O (stereo in doubt) [Example 273, 5-amino-N-(4-((2S,4S,5R,6R)-4-amino-5-hydroxy-6-isopropyltetrahydro-2H-pyran-2-yl)pyridin-3-yl)-2-(2,6-difluorophenyl)pyrimidine-4-carboxamide]
2 | 4.68 | 9.33 | 7.76 | 8.34 |  | CC[C@@H]1O[C@H](c2ccncc2NC(=O)c2ccc(F)c(-c3c(F)cccc3F)n2)C[C@H](N)[C@@]1(C)O (stereo in doubt) [Example 276, N-(4-((2S,4S,5R,6S)-4-amino-6-ethyl-5-hydroxy-5-methyltetrahydro-2H-pyran-2-yl)pyridin-3-yl)-6-(2,6-difluorophenyl)-5-fluoropicolinamide]
3 | 5.51 | 7.99 |  | 6.72 | < 5.00 | C[C@@H]1O[C@H](c2ccncc2NC(=O)c2csc(-c3c(F)cccc3F)n2)C[C@H](N)[C@@]1(C)O [Example 222, N-(4-((2S,4S,5R,6S)-4-amino-5-hydroxy-5,6-dimethyltetrahydro-2H-pyran-2-yl)pyridin-3-yl)-2-(2,6-difluorophenyl)thiazole-4-carboxamide]
4 | 5.01 | 8.34 |  | 6.70 | 5.36 | N[C@H]1C[C@@H](c2ccncc2NC(=O)c2ccc(F)c(-c3c(F)cccc3F)n2)O[C@H]2CCC[C@H]21 [Example 223, N-(4-((2S,4S,4aS,7aS)-4-aminooctahydrocyclopenta[b]pyran-2-yl)pyridin-3-yl)-6-(2,6-difluorophenyl)-5-fluoropicolinamide]
5 | < 4.60 | 4.84 |  | < 4.60 | < 5.00 | COc1cc(NC(=O)c2ccc(F)c(-c3c(F)cccc3F)n2)c([C@H]2C[C@@H](O)[C@H](O)[C@@H](CO)O2)cn1 [Example 225, 6-(2,6-difluorophenyl)-N-(5-((2R,4R,5S,6R)-4,5-dihydroxy-6-(hydroxymethyl)tetrahydro-2H-pyran-2-yl)-2-methoxypyridin-4-yl)-5-fluoropicolinamide]
6 | 5.20 | 7.68 | 6.41 | 6.88 |  | N[C@@H]1C[C@H](c2ccncc2NC(=O)c2ccc(F)c(-c3c(F)cccc3F)n2)O[C@@H]2CCC(=O)N[C@@H]12 [Example 241, N-(4-((2R,4R,4aS,8aR)-4-amino-6-oxooctahydro-2H-pyrano[3,2-b]pyridin-2-yl)pyridin-3-yl)-6-(2,6-difluorophenyl)-5-fluoropicolinamide]
7 | 6.11 | 10.30 | 8.16 | 9.10 |  | Cc1cc(F)c(-c2nc(C(=O)Nc3cnccc3[C@H]3C[C@@H](N)[C@](C)(O)[C@@H](C)O3)ccc2F)c(F)c1 [Example 245, N-(4-((2R,4R,5S,6R)-4-amino-5-hydroxy-5,6-dimethyltetrahydro-2H-pyran-2-yl)pyridin-3-yl)-6-(2,6-difluoro-4-methylphenyl)-5-fluoropicolinamide]

More lines, now with the values behind:

Row | Structure (SMILES) | pIC50 (GSK3β) | pIC50 (PIM1) | pIC50 (PIM2) | pIC50 (PIM3) | pEC50 [1]
8 | CC(C)C1OC(c2ccncc2NC(=O)c2ccc(F)c(-c3c(F)cccc3F)n2)C[C@H](N)[C@H]1O (stereo in doubt) [Example 274, N-(4-((2S,4S,5R,6R)-4-amino-5-hydroxy-6-isopropyltetrahydro-2H-pyran-2-yl)pyridin-3-yl)-6-(2,6-difluorophenyl)-5-fluoropicolinamide] | 4.97 | 8.33 | 6.52 | 7.02 | 
9 | CC[C@H]1O[C@@H](c2ccncc2NC(=O)c2ccc(F)c(-c3c(F)cccc3F)n2)C[C@@H](N)[C@]1(C)O (stereo in doubt) [Example 275, N-(4-((2R,4R,5S,6R)-4-amino-6-ethyl-5-hydroxy-5-methyltetrahydro-2H-pyran-2-yl)pyridin-3-yl)-6-(2,6-difluorophenyl)-5-fluoropicolinamide] | 4.78 | 8.58 | 6.63 | 7.28 | 
10 | C[C@H]1O[C@@H](c2ccncc2NC(=O)c2csc(-c3c(F)cccc3F)n2)C[C@@H](N)[C@]1(C)O [Example 221, N-(4-((2R,4R,5S,6R)-4-amino-5-hydroxy-5,6-dimethyltetrahydro-2H-pyran-2-yl)pyridin-3-yl)-2-(2,6-difluorophenyl)thiazole-4-carboxamide] | 7.13 | 9.19 |  | 7.73 | 5.11
11 | O=C(Nc1cc(=O)[nH]cc1[C@H]1C[C@@H](O)[C@H](O)[C@@H](CO)O1)c1ccc(F)c(-c2c(F)cccc2F)n1 [Example 226, 6-(2,6-difluorophenyl)-N-(5-((2R,4R,5S,6R)-4,5-dihydroxy-6-(hydroxymethyl)tetrahydro-2H-pyran-2-yl)-2-oxo-1,2-dihydropyridin-4-yl)-5-fluoropicolinamide] | 4.97 | 5.84 |  | 4.63 | < 5.00
12 | N[C@@H]1C[C@H](c2ccncc2NC(=O)c2csc(-c3c(F)cccc3F)n2)O[C@@H]2CCC[C@H]12 [Example 231, N-(4-((2R,4R,4aR,7aR)-4-aminooctahydrocyclopenta[b]pyran-2-yl)pyridin-3-yl)-2-(2,6-difluorophenyl)thiazole-4-carboxamide] | 7.27 | 9.62 |  | 7.84 | 5.24
13 | N[C@@H]1C[C@H](c2ccncc2NC(=O)c2ccc(F)c(-c3c(F)cccc3F)n2)O[C@H](C2CC2)[C@H]1O [Example 235, N-(4-((2R,4R,5S,6R)-4-amino-6-cyclopropyl-5-hydroxytetrahydro-2H-pyran-2-yl)pyridin-3-yl)-6-(2,6-difluorophenyl)-5-fluoropicolinamide] | 5.13 | 9.46 | 8.00 | 8.12 | 
14 | N[C@H]1C[C@@H](c2ccncc2NC(=O)c2ccc(F)c(-c3c(F)cccc3F)n2)O[C@@H](C2CC2)[C@@H]1O [Example 236, N-(4-((2S,4S,5R,6S)-4-amino-6-cyclopropyl-5-hydroxytetrahydro-2H-pyran-2-yl)pyridin-3-yl)-6-(2,6-difluorophenyl)-5-fluoropicolinamide] | < 4.60 | 8.44 | 6.68 | 6.94 | 
15 | N[C@@H]1C[C@H](c2ccncc2NC(=O)c2ccnc(-c3c(F)cccc3F)n2)O[C@@H]2CCCC[C@]12O [Example 237, N-(4-((2R,4R,4aS,8aR)-4-amino-4a-hydroxyoctahydro-2H-chromen-2-yl)pyridin-3-yl)-2-(2,6-difluorophenyl)pyrimidine-4-carboxamide] | 7.89 | 8.47 | 7.15 | 7.62 | 
16 | CC[C@]1(O)[C@H](N)C[C@H](c2ccncc2NC(=O)c2nc(-c3c(F)cccc3F)ncc2N)O[C@@H]1C [Example 239, 5-amino-N-(4-((2R,4R,5S,6R)-4-amino-5-ethyl-5-hydroxy-6-methyltetrahydro-2H-pyran-2-yl)pyridin-3-yl)-2-(2,6-difluorophenyl)pyrimidine-4-carboxamide] | 6.45 | 9.04 | 7.62 | 8.08 | 
17 | COc1ccc(F)c(-c2nc(C(=O)Nc3cnccc3[C@H]3C[C@@H](N)[C@](C)(O)[C@@H](C)O3)ccc2F)c1F [Example 244, N-(4-((2R,4R,5S,6R)-4-amino-5-hydroxy-5,6-dimethyltetrahydro-2H-pyran-2-yl)pyridin-3-yl)-6-(2,6-difluoro-3-methoxyphenyl)-5-fluoropicolinamide] | 6.09 | 10.10 | 7.91 | 8.92 | 
18 | C[C@]1(O)[C@H](O)C[C@H](c2ccncc2NC(=O)c2nc(-c3c(F)cccc3F)ncc2N)O[C@@H]1C1CC1 [Example 246, 5-amino-N-(4-((2R,4R,5S,6R)-6-cyclopropyl-4,5-dihydroxy-5-methyltetrahydro-2H-pyran-2-yl)pyridin-3-yl)-2-(2,6-difluorophenyl)pyrimidine-4-carboxamide] | 6.01 | 7.15 | 6.09 | 6.01 | 
